Tests used:
[1] = biological target: T1, 97 kinases (Homo sapiens, UniProt O15111); assay: scanEDGE off-target screen; assay type: binding; settings: read-out: %Ctrl IKK-alpha
T1 construct: purchased Ambit Biosciences (scanEDGE / KINOMEscan) scanEDGE 97 kinase panel; host or cells: T7 phage in E. coli BL21-derived host; remaining kinases in HEK-293 cells

[2] = biological target: T2, 97 kinases (Homo sapiens, UniProt P00519, E255K); assay: scanEDGE off-target screen; assay type: binding; settings: read-out: %Ctrl ABL1(E255K)-phosphorylated
T2 construct: purchased Ambit Biosciences (scanEDGE / KINOMEscan) scanEDGE 97 kinase panel; host or cells: T7 phage in E. coli BL21-derived host; remaining kinases in HEK-293 cells

[3] = biological target: T3, 97 kinases (Homo sapiens, UniProt Q9BUB5); assay: scanEDGE off-target screen; assay type: binding; settings: read-out: %Ctrl MKNK1
T3 construct: purchased Ambit Biosciences (scanEDGE / KINOMEscan) scanEDGE 97 kinase panel; host or cells: T7 phage in E. coli BL21-derived host; remaining kinases in HEK-293 cells

[4] = biological target: T4, 97 kinases (Homo sapiens, UniProt P50613); assay: scanEDGE off-target screen; assay type: binding; settings: read-out: %Ctrl CDK7
T4 construct: purchased Ambit Biosciences (scanEDGE / KINOMEscan) scanEDGE 97 kinase panel; host or cells: T7 phage in E. coli BL21-derived host; remaining kinases in HEK-293 cells

[5] = biological target: T5, 97 kinases (Homo sapiens, UniProt P22607); assay: scanEDGE off-target screen; assay type: binding; settings: read-out: %Ctrl FGFR3
T5 construct: purchased Ambit Biosciences (scanEDGE / KINOMEscan) scanEDGE 97 kinase panel; host or cells: T7 phage in E. coli BL21-derived host; remaining kinases in HEK-293 cells

[6] = biological target: T6, 97 kinases (Homo sapiens, UniProt P53779); assay: scanEDGE off-target screen; assay type: binding; settings: read-out: %Ctrl JNK3
T6 construct: purchased Ambit Biosciences (scanEDGE / KINOMEscan) scanEDGE 97 kinase panel; host or cells: T7 phage in E. coli BL21-derived host; remaining kinases in HEK-293 cells

[7] = biological target: T7, 97 kinases (Homo sapiens, UniProt P21802); assay: scanEDGE off-target screen; assay type: binding; settings: read-out: %Ctrl FGFR2
T7 construct: purchased Ambit Biosciences (scanEDGE / KINOMEscan) scanEDGE 97 kinase panel; host or cells: T7 phage in E. coli BL21-derived host; remaining kinases in HEK-293 cells

[8] = biological target: T8, 97 kinases (Homo sapiens, UniProt P15056, V600E); assay: scanEDGE off-target screen; assay type: binding; settings: read-out: %Ctrl BRAF(V600E)
T8 construct: purchased Ambit Biosciences (scanEDGE / KINOMEscan) scanEDGE 97 kinase panel; host or cells: T7 phage in E. coli BL21-derived host; remaining kinases in HEK-293 cells

[9] = biological target: T9, 97 kinases (Homo sapiens, UniProt P07333); assay: scanEDGE off-target screen; assay type: binding; settings: read-out: %Ctrl CSF1R
T9 construct: purchased Ambit Biosciences (scanEDGE / KINOMEscan) scanEDGE 97 kinase panel; host or cells: T7 phage in E. coli BL21-derived host; remaining kinases in HEK-293 cells

[10] = biological target: T10, 97 kinases (Homo sapiens, UniProt Q86V86); assay: scanEDGE off-target screen; assay type: binding; settings: read-out: %Ctrl PIM3
T10 construct: purchased Ambit Biosciences (scanEDGE / KINOMEscan) scanEDGE 97 kinase panel; host or cells: T7 phage in E. coli BL21-derived host; remaining kinases in HEK-293 cells

[11] = biological target: T11, 97 kinases (Homo sapiens, UniProt P43403); assay: scanEDGE off-target screen; assay type: binding; settings: read-out: %Ctrl ZAP70
T11 construct: purchased Ambit Biosciences (scanEDGE / KINOMEscan) scanEDGE 97 kinase panel; host or cells: T7 phage in E. coli BL21-derived host; remaining kinases in HEK-293 cells

[12] = biological target: T12, 97 kinases (Homo sapiens, UniProt P29597); assay: scanEDGE off-target screen; assay type: binding; settings: read-out: %Ctrl TYK2(JH1domain-catalytic)
T12 construct: purchased Ambit Biosciences (scanEDGE / KINOMEscan) scanEDGE 97 kinase panel; host or cells: T7 phage in E. coli BL21-derived host; remaining kinases in HEK-293 cells

[13] = biological target: T13, 97 kinases (Homo sapiens, UniProt Q96GD4); assay: scanEDGE off-target screen; assay type: binding; settings: read-out: %Ctrl AURKB
T13 construct: purchased Ambit Biosciences (scanEDGE / KINOMEscan) scanEDGE 97 kinase panel; host or cells: T7 phage in E. coli BL21-derived host; remaining kinases in HEK-293 cells

[14] = biological target: T14, 97 kinases (Homo sapiens, UniProt Q86UX6); assay: scanEDGE off-target screen; assay type: binding; settings: read-out: %Ctrl YANK3
T14 construct: purchased Ambit Biosciences (scanEDGE / KINOMEscan) scanEDGE 97 kinase panel; host or cells: T7 phage in E. coli BL21-derived host; remaining kinases in HEK-293 cells

[15] = biological target: T15, 97 kinases (Homo sapiens, UniProt Q02156); assay: scanEDGE off-target screen; assay type: binding; settings: read-out: %Ctrl PRKCE
T15 construct: purchased Ambit Biosciences (scanEDGE / KINOMEscan) scanEDGE 97 kinase panel; host or cells: T7 phage in E. coli BL21-derived host; remaining kinases in HEK-293 cells

[16] = biological target: T16, 97 kinases (Homo sapiens, UniProt Q9HBH9); assay: scanEDGE off-target screen; assay type: binding; settings: read-out: %Ctrl MKNK2
T16 construct: purchased Ambit Biosciences (scanEDGE / KINOMEscan) scanEDGE 97 kinase panel; host or cells: T7 phage in E. coli BL21-derived host; remaining kinases in HEK-293 cells

[17] = biological target: T17, 97 kinases (Homo sapiens, UniProt O96013); assay: scanEDGE off-target screen; assay type: binding; settings: read-out: %Ctrl PAK4
T17 construct: purchased Ambit Biosciences (scanEDGE / KINOMEscan) scanEDGE 97 kinase panel; host or cells: T7 phage in E. coli BL21-derived host; remaining kinases in HEK-293 cells

[18] = biological target: T18, 97 kinases (Homo sapiens, UniProt P09619); assay: scanEDGE off-target screen; assay type: binding; settings: read-out: %Ctrl PDGFRB
T18 construct: purchased Ambit Biosciences (scanEDGE / KINOMEscan) scanEDGE 97 kinase panel; host or cells: T7 phage in E. coli BL21-derived host; remaining kinases in HEK-293 cells

[19] = biological target: T19, 97 kinases (Homo sapiens, UniProt O00444); assay: scanEDGE off-target screen; assay type: binding; settings: read-out: %Ctrl PLK4
T19 construct: purchased Ambit Biosciences (scanEDGE / KINOMEscan) scanEDGE 97 kinase panel; host or cells: T7 phage in E. coli BL21-derived host; remaining kinases in HEK-293 cells

[20] = biological target: T20, 97 kinases (Homo sapiens, UniProt O60674); assay: scanEDGE off-target screen; assay type: binding; settings: read-out: %Ctrl JAK2(JH1domain-catalytic)
T20 construct: purchased Ambit Biosciences (scanEDGE / KINOMEscan) scanEDGE 97 kinase panel; host or cells: T7 phage in E. coli BL21-derived host; remaining kinases in HEK-293 cells

[21] = biological target: T21, 97 kinases (Homo sapiens, UniProt P08581); assay: scanEDGE off-target screen; assay type: binding; settings: read-out: %Ctrl MET
T21 construct: purchased Ambit Biosciences (scanEDGE / KINOMEscan) scanEDGE 97 kinase panel; host or cells: T7 phage in E. coli BL21-derived host; remaining kinases in HEK-293 cells

[22] = biological target: T22, CYP2A6 (Homo sapiens, UniProt P11509); assay: Cytochrome P450 profiling, tranylcypromine; assay type: in vitro ADME; settings: for % PU-HZ151 remaining: Tranylcypromine
T22 construct: PU-HZ151 (1 µM) was incubated with human liver microsomes (0.5 mg protein mL^−1); tissue Life Technologies HMMCPL; host or cells: human liver microsomes
T22 sequence (P11509 1-494): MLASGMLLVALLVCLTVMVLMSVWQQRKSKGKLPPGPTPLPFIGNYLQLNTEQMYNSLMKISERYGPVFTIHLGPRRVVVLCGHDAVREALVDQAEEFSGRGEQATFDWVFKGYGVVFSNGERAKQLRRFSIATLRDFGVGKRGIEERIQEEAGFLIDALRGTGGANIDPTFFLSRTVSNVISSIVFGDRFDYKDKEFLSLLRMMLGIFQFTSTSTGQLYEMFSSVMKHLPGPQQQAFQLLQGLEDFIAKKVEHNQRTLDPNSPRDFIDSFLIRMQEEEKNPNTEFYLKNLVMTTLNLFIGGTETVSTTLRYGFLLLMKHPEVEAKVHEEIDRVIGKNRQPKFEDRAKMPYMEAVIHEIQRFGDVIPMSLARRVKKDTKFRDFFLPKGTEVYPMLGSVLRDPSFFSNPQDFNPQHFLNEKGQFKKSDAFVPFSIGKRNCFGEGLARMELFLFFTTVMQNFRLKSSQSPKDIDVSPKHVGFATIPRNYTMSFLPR
Method: To identify cytochrome P450 enzymes responsible for PU-HZ151’s metabolism in human liver microsomes the following procedure was followed. Phosphate buffer (100 mM, pH 7.4) was prepared monthly and stored at 4 °C. Frozen stock solutions of human liver microsomes (Life Technologies; Cat# HMMCPL) were used once after thawing and were not refrozen. NADPH stock solution (50 mM) in distilled water was prepared fresh daily. […] The stock solutions of these P450 inhibitors were prepared in DMSO. […] The concentration of the chemical inhibitors used in the assay were furafylline (10 μM), tranylcypromine (2 μM), ketoconazole (1 μM), troleandomycin (20 μM), orphenadrine (50 μM), montelukast (3 μM), sulfaphenazole (10 μM), benzylnirvanol (1 μM), quinidine (1 μM), and 1-aminobenzotriazole (1 mM) for all the P450 enzymes. Timing of the reactions was started following the addition of NADPH/magnesium chloride mix and PU-HZ151. Time-dependent chemical inhibitors (furafylline, troleandomycin, orphenadrine, and 1-aminobenzotriazole) were preincubated with human microsomes in the presence of NADPH and magnesium chloride for 15 min before the addition of PU-HZ151 and timing of reactions was started after addition of PU-HZ151. […] Following brief vortexing and centrifugation, a 200 µL aliquot of the supernatant was transferred to a tube, and 10 µL of haloperidol (1 µg mL^−1) as internal standard was added. Following brief vortexing and centrifugation, 50 µL of supernatant was added to a 96-well plate for subsequent LC-MS/MS analysis. PU-HZ151 was similarly tested as above in the absence of CYP inhibitors for comparative purposes. All samples were assayed in duplicate. […] This was similarly performed for incubations of PU-HZ151 performed in the absence of CYP inhibitor.

T12 sequence (P29597 whole entry): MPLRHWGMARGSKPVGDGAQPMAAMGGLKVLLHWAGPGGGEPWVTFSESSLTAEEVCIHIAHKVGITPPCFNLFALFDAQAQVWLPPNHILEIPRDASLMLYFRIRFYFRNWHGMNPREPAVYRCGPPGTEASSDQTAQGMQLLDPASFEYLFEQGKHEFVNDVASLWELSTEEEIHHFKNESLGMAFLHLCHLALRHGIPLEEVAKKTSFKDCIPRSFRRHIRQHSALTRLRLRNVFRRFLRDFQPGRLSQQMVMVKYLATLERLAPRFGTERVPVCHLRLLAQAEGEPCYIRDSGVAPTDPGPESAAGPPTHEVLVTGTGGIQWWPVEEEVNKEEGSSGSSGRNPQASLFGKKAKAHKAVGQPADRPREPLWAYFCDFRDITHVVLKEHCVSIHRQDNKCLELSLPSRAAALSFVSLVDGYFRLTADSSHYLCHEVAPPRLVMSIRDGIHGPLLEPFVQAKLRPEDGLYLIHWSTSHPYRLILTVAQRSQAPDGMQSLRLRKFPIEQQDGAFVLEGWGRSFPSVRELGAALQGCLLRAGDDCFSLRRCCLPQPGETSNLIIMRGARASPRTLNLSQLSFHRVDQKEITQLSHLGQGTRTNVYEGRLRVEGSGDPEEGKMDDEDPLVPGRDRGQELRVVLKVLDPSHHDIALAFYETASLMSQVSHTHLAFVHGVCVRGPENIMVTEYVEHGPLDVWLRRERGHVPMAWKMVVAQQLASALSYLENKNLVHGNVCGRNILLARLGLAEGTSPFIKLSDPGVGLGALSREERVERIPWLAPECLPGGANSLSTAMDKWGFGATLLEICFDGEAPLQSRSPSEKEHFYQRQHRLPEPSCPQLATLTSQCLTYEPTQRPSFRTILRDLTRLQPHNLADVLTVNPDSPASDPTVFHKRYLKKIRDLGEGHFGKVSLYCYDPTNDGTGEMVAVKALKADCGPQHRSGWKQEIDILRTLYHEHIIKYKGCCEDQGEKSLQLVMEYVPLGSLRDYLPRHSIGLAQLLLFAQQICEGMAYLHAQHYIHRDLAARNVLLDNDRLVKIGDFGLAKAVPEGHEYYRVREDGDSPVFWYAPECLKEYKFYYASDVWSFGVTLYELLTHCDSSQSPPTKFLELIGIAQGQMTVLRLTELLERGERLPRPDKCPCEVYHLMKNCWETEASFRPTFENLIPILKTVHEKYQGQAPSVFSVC
T11 sequence (P43403 whole entry): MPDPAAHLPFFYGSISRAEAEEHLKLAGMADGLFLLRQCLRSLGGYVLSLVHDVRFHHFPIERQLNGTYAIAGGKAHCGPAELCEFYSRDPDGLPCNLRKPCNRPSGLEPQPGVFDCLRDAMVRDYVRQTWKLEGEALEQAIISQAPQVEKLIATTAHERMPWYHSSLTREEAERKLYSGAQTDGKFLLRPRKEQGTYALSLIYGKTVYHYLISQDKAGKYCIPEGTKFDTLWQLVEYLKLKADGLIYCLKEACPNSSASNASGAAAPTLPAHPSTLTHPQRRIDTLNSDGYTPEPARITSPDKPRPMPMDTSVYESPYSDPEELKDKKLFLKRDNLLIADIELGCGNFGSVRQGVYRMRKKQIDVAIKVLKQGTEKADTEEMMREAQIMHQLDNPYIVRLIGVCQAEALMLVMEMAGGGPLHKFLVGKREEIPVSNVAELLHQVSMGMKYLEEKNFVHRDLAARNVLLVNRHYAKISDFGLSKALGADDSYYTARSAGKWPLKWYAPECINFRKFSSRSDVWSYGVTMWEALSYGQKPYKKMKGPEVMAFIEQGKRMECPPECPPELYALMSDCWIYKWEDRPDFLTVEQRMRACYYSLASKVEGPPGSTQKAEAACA
T4 sequence (P50613 whole entry): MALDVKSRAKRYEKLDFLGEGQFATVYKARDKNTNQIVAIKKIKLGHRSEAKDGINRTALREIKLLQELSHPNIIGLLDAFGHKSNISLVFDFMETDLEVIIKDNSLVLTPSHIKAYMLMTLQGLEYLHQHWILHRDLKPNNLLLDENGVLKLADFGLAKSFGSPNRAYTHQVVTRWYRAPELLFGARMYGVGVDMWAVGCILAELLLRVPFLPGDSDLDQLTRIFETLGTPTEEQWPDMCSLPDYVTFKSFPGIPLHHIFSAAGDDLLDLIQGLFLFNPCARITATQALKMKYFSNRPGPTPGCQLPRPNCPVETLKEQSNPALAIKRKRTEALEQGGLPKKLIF
T2 sequence (P00519 whole entry E255K): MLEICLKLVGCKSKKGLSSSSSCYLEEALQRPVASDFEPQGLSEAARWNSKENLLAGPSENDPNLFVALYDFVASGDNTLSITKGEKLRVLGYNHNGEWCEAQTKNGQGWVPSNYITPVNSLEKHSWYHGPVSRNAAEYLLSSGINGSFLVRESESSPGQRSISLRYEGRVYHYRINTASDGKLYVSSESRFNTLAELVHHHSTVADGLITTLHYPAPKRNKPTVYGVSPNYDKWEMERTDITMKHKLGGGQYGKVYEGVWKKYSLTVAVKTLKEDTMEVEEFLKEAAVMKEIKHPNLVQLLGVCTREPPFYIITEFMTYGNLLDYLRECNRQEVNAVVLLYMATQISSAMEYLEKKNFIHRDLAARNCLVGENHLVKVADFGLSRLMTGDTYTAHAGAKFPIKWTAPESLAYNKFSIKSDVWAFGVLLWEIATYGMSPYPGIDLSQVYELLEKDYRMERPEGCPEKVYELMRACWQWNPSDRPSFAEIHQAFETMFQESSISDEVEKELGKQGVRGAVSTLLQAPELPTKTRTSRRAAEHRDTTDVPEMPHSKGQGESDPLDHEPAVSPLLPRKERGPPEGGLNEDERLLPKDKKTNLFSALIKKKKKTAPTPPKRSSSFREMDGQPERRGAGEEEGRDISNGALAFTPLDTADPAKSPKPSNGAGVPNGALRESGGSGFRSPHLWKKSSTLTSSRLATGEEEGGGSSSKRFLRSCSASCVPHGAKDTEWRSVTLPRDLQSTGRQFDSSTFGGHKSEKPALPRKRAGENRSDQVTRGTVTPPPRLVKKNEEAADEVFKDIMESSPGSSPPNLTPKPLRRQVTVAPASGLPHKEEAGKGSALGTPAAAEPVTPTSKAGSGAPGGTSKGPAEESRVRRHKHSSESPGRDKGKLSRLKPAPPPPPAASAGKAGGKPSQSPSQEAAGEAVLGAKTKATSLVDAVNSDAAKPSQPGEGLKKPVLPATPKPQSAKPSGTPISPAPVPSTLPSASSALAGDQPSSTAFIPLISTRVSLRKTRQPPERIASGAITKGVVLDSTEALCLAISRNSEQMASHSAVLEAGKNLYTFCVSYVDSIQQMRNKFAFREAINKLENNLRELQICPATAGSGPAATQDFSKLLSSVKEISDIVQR
T8 sequence (P15056 whole entry V600E): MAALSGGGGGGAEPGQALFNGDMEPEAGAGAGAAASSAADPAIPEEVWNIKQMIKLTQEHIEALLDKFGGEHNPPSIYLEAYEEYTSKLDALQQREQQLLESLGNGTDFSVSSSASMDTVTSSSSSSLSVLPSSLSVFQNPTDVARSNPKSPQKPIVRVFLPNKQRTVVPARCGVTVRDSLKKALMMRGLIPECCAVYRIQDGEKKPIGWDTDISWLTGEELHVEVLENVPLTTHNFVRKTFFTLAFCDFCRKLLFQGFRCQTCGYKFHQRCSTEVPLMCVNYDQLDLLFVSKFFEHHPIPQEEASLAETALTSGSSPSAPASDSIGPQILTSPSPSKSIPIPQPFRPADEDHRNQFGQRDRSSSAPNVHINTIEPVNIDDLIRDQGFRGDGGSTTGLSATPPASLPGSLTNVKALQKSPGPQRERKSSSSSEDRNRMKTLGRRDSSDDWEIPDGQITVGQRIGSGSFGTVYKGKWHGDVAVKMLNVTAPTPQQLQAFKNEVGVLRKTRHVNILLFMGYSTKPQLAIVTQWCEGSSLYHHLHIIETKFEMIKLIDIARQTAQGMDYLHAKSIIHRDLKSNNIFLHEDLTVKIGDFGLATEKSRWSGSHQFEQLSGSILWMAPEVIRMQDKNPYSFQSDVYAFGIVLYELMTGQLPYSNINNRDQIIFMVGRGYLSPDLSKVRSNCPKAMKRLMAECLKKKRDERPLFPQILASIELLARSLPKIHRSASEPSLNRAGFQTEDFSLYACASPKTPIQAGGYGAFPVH
T9 sequence (P07333 20-972): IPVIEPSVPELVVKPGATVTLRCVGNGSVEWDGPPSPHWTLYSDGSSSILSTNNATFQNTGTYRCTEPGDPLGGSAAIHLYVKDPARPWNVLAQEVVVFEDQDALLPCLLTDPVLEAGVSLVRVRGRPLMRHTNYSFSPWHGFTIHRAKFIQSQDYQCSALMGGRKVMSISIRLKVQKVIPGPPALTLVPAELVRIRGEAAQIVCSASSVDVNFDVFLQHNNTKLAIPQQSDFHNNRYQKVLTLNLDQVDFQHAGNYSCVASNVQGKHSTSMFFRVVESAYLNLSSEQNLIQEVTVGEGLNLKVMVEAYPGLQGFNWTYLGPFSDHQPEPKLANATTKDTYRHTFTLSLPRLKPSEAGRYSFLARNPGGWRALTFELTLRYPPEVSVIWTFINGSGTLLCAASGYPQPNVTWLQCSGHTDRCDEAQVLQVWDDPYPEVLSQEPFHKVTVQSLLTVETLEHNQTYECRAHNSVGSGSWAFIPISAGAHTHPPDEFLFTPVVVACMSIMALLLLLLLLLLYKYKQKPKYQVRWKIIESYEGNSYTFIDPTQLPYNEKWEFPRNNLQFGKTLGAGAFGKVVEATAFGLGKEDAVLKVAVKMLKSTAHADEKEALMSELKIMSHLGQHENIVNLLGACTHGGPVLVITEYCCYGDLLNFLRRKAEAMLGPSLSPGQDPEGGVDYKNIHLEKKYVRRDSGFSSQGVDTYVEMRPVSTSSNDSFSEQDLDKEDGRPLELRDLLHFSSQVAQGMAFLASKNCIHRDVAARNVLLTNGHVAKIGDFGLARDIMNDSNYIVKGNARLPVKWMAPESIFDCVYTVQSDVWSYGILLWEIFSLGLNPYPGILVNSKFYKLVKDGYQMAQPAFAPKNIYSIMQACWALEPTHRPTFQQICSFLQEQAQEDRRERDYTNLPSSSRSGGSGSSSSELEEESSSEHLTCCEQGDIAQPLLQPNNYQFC

CC(C)(C)CNCCn1c(Sc2cc3c(cc2I)OCO3)nc2c(N)ncnc21 [Compound 85]
remaining binding at 10 µM [1]: 99% | remaining binding at 10 µM [2]: 80% | remaining binding at 10 µM [3]: 100% | remaining binding at 10 µM [4]: 79% | remaining binding at 10 µM [5]: 95% | remaining binding at 10 µM [6]: 100% | remaining binding at 10 µM [7]: 63% | remaining binding at 10 µM [8]: 97% | remaining binding at 10 µM [9]: 94% | remaining binding at 10 µM [10]: 91% | remaining binding at 10 µM [11]: 78% | remaining binding at 10 µM [12]: 99% | remaining binding at 10 µM [13]: 73% | remaining binding at 10 µM [14]: 95% | remaining binding at 10 µM [15]: 100% | remaining binding at 10 µM [16]: 93% | remaining binding at 10 µM [17]: 100% | remaining binding at 10 µM [18]: 98% | remaining binding at 10 µM [19]: 89% | remaining binding at 10 µM [20]: 100% | remaining binding at 10 µM [21]: 100% | % PU-HZ151 remaining ([22]; 15 min): 57.2% | % PU-HZ151 remaining ([22]; 30 min): 36.6% | % PU-HZ151 remaining ([22]; 60 min): 18.4% | inhibition of PU-HZ151 metabolism ([22]; tranylcypromine): essentially no effect

Source: publication PMC8333062, “Chemical tools for epichaperome-mediated interactome dysfunctions of the central nervous system” (Nature Communications, 2021)
